Measurements: patent publication US20240299385A1 (ReWind Therapeutics NV, priority 2021, published 2024)

Biological target: T1, human GPR17 receptor (Homo sapiens, UniProt Q13304)
T1 construct: host or cells: HEK-293
Test: Calcium mobilization functional assay (Fluo-8, FLIPR TETRA) in HEK-293 hGPR17 (Gα-q assay)
Format: cell-based
Conditions: antagonism of MDL29,951 (~EC80) induced Ca2+ signal; cell line (HEK-293 hGPR17 or HEK-293 Suchi5 hGPR17) not given
Procedure, shortened: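 Fluo-8-loaded HEK-293 hGPR17 cells (60 min dye loading, room temperature) were preincubated with compound for twenty minutes, then challenged with agonist MDL29,951 at ~EC80, 500 nM. Intracellular calcium release via Gα-q was recorded as FLIPR fluorescence for a further 2 minutes; compounds tested in duplicate.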

T1 sequence (Q13304 whole entry): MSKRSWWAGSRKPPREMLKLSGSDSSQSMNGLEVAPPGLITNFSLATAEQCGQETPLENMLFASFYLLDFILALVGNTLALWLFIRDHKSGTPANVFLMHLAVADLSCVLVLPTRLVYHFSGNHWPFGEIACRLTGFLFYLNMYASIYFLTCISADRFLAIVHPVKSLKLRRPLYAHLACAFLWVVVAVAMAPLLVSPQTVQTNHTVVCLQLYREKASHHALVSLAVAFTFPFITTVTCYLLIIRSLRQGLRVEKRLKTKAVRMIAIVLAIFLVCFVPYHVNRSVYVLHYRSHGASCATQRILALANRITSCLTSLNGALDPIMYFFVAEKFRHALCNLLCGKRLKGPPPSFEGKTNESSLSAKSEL

| SMILES | IC50 |
| --- | --- |
| N#Cc1ccc(NS(=O)(=O)c2c[nH]c(-c3ncccc3F)c2)c(F)c1 [Cpd 090, N-(4-cyano-2-fluorophenyl)-5-(3-fluoropyridin-2-yl)-1H-pyrrole-3-sulfonamide] | < 0.5 µM |
| N#Cc1ccc(NS(=O)(=O)c2c[nH]c(-c3ccccc3C(F)F)c2)c(F)c1 [Cpd 093, N-(4-cyano-2-fluoro-phenyl)-5-[2-(difluoromethyl)phenyl]-1H-pyrrole-3-sulfonamide] | 0.5 to 5 µM |
| N#Cc1ccc(NS(=O)(=O)c2c[nH]c(-c3ccc(C#N)cc3F)c2)c(F)c1 [Cpd 096, N,5-bis(4-cyano-2-fluoro-phenyl)-1H-pyrrole-3-sulfonamide] | 0.5 to 5 µM |
| O=S(=O)(Nc1ccc(C(F)(F)F)nc1)c1c[nH]c(-c2ccccc2)c1 [Cpd 099, 5-phenyl-N-[6-(trifluoromethyl)-3-pyridyl]-1H-pyrrole-3-sulfonamide] | 0.5 to 5 µM |
| Cc1ncccc1NS(=O)(=O)c1c[nH]c(-c2ccccc2)c1 [Cpd 100, N-(2-methyl-3-pyridyl)-5-phenyl-1H-pyrrole-3-sulfonamide] | 0.5 to 5 µM |
| N#Cc1ccc(NS(=O)(=O)c2c[nH]c(-c3cccs3)c2)c(F)c1 [Cpd 102, N-(4-cyano-2-fluoro-phenyl)-5-(2-thienyl)-1H-pyrrole-3-sulfonamide] | < 0.5 µM |
| N#Cc1ccc(NS(=O)(=O)c2c[nH]c(-c3cc(F)cc(F)c3)c2)c(F)c1 [Cpd 104, N-(4-cyano-2-fluoro-phenyl)-5-(3,5-difluorophenyl)-1H-pyrrole-3-sulfonamide] | 0.5 to 5 µM |
| N#Cc1ccc(NS(=O)(=O)c2c[nH]c(-c3cc(CO)ccc3F)c2)c(F)c1 [Cpd 108, N-(4-cyano-2-fluoro-phenyl)-5-[2-fluoro-5-(hydroxymethyl)phenyl]-1H-pyrrole-3-sulfonamide] | 0.5 to 5 µM |
| O=S(=O)(Nc1cc(F)c(F)cc1F)c1c[nH]c(-c2ccc(F)cc2)c1 [Cpd 109, 5-(4-fluorophenyl)-N-(2,4,5-trifluorophenyl)-1H-pyrrole-3-sulfonamide] | 5 to 50 µM |
| O=S(=O)(Nc1ccc2ncccc2c1)c1c[nH]c(-c2ccccc2)c1 [Cpd 112, 5-phenyl-N-(6-quinolyl)-1H-pyrrole-3-sulfonamide] | 0.5 to 5 µM |
| O=S(=O)(Nc1cc(F)c(C(F)(F)F)cc1F)c1c[nH]c(-c2ccc(F)cc2)c1 [Cpd 113, N-[2,5-difluoro-4-(trifluoromethyl)phenyl]-5-(4-fluorophenyl)-1H-pyrrole-3-sulfonamide] | 0.5 to 5 µM |
| O=S(=O)(Nc1cc(F)c(C(F)(F)F)cc1F)c1c[nH]c(-c2cccc(F)c2)c1 [Cpd 114, N-[2,5-difluoro-4-(trifluoromethyl)phenyl]-5-(3-fluorophenyl)-1H-pyrrole-3-sulfonamide] | 0.5 to 5 µM |
| COc1nc(OC(F)F)c(F)cc1NS(=O)(=O)c1c[nH]c(-c2ccccc2F)c1 [Cpd 116, N-[6-(difluoromethoxy)-5-fluoro-2-methoxy-3-pyridyl]-5-(2-fluorophenyl)-1H-pyrrole-3-sulfonamide] | < 0.5 µM |
| O=S(=O)(Nc1cc(F)c(C(F)(F)F)cc1F)c1c[nH]c(-c2c(F)cccc2F)c1 [Cpd 119, 5-(2,6-difluorophenyl)-N-[2,5-difluoro-4-(trifluoromethyl)phenyl]-1H-pyrrole-3-sulfonamide] | < 0.5 µM |
| O=S(=O)(Nc1ccc(F)cc1F)c1c[nH]c(-c2ccccn2)c1 [Cpd 122, N-(2,4-difluorophenyl)-5-(2-pyridyl)-1H-pyrrole-3-sulfonamide] | 5 to 50 µM |
| O=S(=O)(Nc1cccc(F)c1)c1c[nH]c(-c2ccccn2)c1 [Cpd 125, N-(3-fluorophenyl)-5-(2-pyridyl)-1H-pyrrole-3-sulfonamide] | 5 to 50 µM |
| Cc1nc(Cl)ccc1NS(=O)(=O)c1c[nH]c(-c2ccccc2)c1 [Cpd 126, N-(6-chloro-2-methyl-3-pyridyl)-5-phenyl-1H-pyrrole-3-sulfonamide] | 0.5 to 5 µM |
| Cc1ccc(NS(=O)(=O)c2c[nH]c(-c3ccccc3)c2)c(Cl)n1 [Cpd 127, N-(2-chloro-6-methyl-3-pyridyl)-5-phenyl-1H-pyrrole-3-sulfonamide] | 5 to 50 µM |
| COCCOc1ccc(NS(=O)(=O)c2c[nH]c(-c3ccccc3F)c2)c(F)c1 [Cpd 130, N-[2-fluoro-4-(2-methoxyethoxy)phenyl]-5-(2-fluorophenyl)-1H-pyrrole-3-sulfonamide] | 5 to 50 µM |
| O=S(=O)(Nc1cc(F)c(F)cc1F)c1c[nH]c(-c2c(F)cccc2F)c1 [Cpd 131, 5-(2,6-difluorophenyl)-N-(2,4,5-trifluorophenyl)-1H-pyrrole-3-sulfonamide] | 0.5 to 5 µM |
| O=S(=O)(Nc1cc(F)c(C(F)(F)F)cc1F)c1c[nH]c(C2CCCC2)c1 [Cpd 132, 5-cyclopentyl-N-[2,5-difluoro-4-(trifluoromethyl)phenyl]-1H-pyrrole-3-sulfonamide] | 0.5 to 5 µM |
| O=S(=O)(Nc1ncc(F)cc1F)c1c[nH]c(-c2ccccc2F)c1 [Cpd 133, N-(3,5-difluoro-2-pyridyl)-5-(2-fluorophenyl)-1H-pyrrole-3-sulfonamide] | 5 to 50 µM |
| COc1cc(Cl)cnc1NS(=O)(=O)c1c[nH]c(-c2ccccc2)c1 [Cpd 134, N-(5-chloro-3-methoxy-2-pyridyl)-5-phenyl-1H-pyrrole-3-sulfonamide] | 0.5 to 5 µM |
| Cc1nc(C(F)(F)F)ccc1NS(=O)(=O)c1c[nH]c(-c2ccccc2)c1 [Cpd 135, N-[2-methyl-6-(trifluoromethyl)-3-pyridyl]-5-phenyl-1H-pyrrole-3-sulfonamide] | 0.5 to 5 µM |

More lines, now with the values ahead:

| IC50 | SMILES |
| --- | --- |
| < 0.5 µM | N#Cc1ccc(NS(=O)(=O)c2c[nH]c(-c3c(F)cccc3F)c2)c(F)c1 [Cpd 091, N-(4-cyano-2-fluoro-phenyl)-5-(2,6-difluorophenyl)-1H-pyrrole-3-sulfonamide] |
| 5 to 50 µM | N#Cc1ccc(NS(=O)(=O)c2c[nH]c(-c3ncccn3)c2)c(F)c1 [Cpd 094, N-(4-cyano-2-fluorophenyl)-5-(pyrimidin-2-yl)-1H-pyrrole-3-sulfonamide] |
| 0.5 to 5 µM | COc1cccc(OC)c1-c1cc(S(=O)(=O)Nc2ccc(C#N)cc2F)c[nH]1 [Cpd 095, N-(4-cyano-2-fluoro-phenyl)-5-(2,6-dimethoxyphenyl)-1H-pyrrole-3-sulfonamide] |
| 0.5 to 5 µM | N#Cc1ccc(NS(=O)(=O)c2c[nH]c(-c3cc(F)cc(F)c3F)c2)c(F)c1 [Cpd 097, N-(4-cyano-2-fluoro-phenyl)-5-(2,3,5-trifluorophenyl)-1H-pyrrole-3-sulfonamide] |
| 0.5 to 5 µM | N#Cc1ccc(NS(=O)(=O)c2c[nH]c(C3CCC3)c2)c(F)c1 [Cpd 098, N-(4-cyano-2-fluorophenyl)-5-cyclobutyl-1H-pyrrole-3-sulfonamide] |
| 0.5 to 5 µM | Cc1ccc(NS(=O)(=O)c2c[nH]c(-c3ccccc3)c2)c(C)n1 [Cpd 101, N-(2,6-dimethyl-3-pyridyl)-5-phenyl-1H-pyrrole-3-sulfonamide] |
| < 0.5 µM | N#Cc1ccc(NS(=O)(=O)c2c[nH]c(-c3ccsc3)c2)c(F)c1 [Cpd 103, N-(4-cyano-2-fluoro-phenyl)-5-(3-thienyl)-1H-pyrrole-3-sulfonamide] |
| 0.5 to 5 µM | N#Cc1ccc(NS(=O)(=O)c2c[nH]c(-c3cccnc3F)c2)c(F)c1 [Cpd 105, N-(4-cyano-2-fluoro-phenyl)-5-(2-fluoro-3-pyridyl)-1H-pyrrole-3-sulfonamide] |
| 0.5 to 5 µM | N#Cc1ccc(NS(=O)(=O)c2c[nH]c(-c3ccccc3C#N)c2)c(F)c1 [Cpd 106, N-(4-cyano-2-fluoro-phenyl)-5-(2-cyanophenyl)-1H-pyrrole-3-sulfonamide] |
| 0.5 to 5 µM | N#Cc1ccc(NS(=O)(=O)c2c[nH]c(-c3cccc(CO)c3F)c2)c(F)c1 [Cpd 107, N-(4-cyano-2-fluoro-phenyl)-5-[2-fluoro-3-(hydroxymethyl)phenyl]-1H-pyrrole-3-sulfonamide] |
| 0.5 to 5 µM | O=S(=O)(Nc1cc(F)c(F)cc1F)c1c[nH]c(-c2cccc(F)c2)c1 [Cpd 110, 5-(3-fluorophenyl)-N-(2,4,5-trifluorophenyl)-1H-pyrrole-3-sulfonamide] |
| 0.5 to 5 µM | Cc1ccccc1-c1cc(S(=O)(=O)Nc2cc(F)c(F)cc2F)c[nH]1 [Cpd 111, 5-(o-tolyl)-N-(2,4,5-trifluorophenyl)-1H-pyrrole-3-sulfonamide] |
| 5 to 50 µM | O=S(=O)(Nc1ccc(OCCF)cc1F)c1c[nH]c(-c2ccccc2F)c1 [Cpd 115, N-[2-fluoro-4-(2-fluoroethoxy)phenyl]-5-(2-fluorophenyl)-1H-pyrrole-3-sulfonamide] |
| 0.5 to 5 µM | COc1ccc(F)c(-c2cc(S(=O)(=O)Nc3cc(F)c(C(F)(F)F)cc3F)c[nH]2)c1 [Cpd 117, N-[2,5-difluoro-4-(trifluoromethyl)phenyl]-5-(2-fluoro-5-methoxy-phenyl)-1H-pyrrole-3-sulfonamide] |
| 0.5 to 5 µM | Cc1ccccc1-c1cc(S(=O)(=O)Nc2cc(F)c(C(F)(F)F)cc2F)c[nH]1 [Cpd 118, N-[2,5-difluoro-4-(trifluoromethyl)phenyl]-5-(o-tolyl)-1H-pyrrole-3-sulfonamide] |
| 5 to 50 µM | O=S(=O)(Nc1ccc(F)cc1F)c1c[nH]c(-c2cccc(F)c2)c1 [Cpd 120, N-(2,4-difluorophenyl)-5-(3-fluorophenyl)-1H-pyrrole-3-sulfonamide] |
| 0.5 to 5 µM | O=S(=O)(Nc1ccc(C(F)(F)F)cc1F)c1c[nH]c(-c2ccccn2)c1 [Cpd 123, N-[2-fluoro-4-(trifluoromethyl)phenyl]-5-(2-pyridyl)-1H-pyrrole-3-sulfonamide] |
| < 0.5 µM | O=S(=O)(Nc1cc(F)c(C(F)(F)F)cc1F)c1c[nH]c(-c2ccccn2)c1 [Cpd 124, N-[2,5-difluoro-4-(trifluoromethyl)phenyl]-5-(2-pyridyl)-1H-pyrrole-3-sulfonamide] |
| 5 to 50 µM | COc1nc(C)ccc1NS(=O)(=O)c1c[nH]c(-c2ccccc2)c1 [Cpd 128, N-(2-methoxy-6-methyl-3-pyridyl)-5-phenyl-1H-pyrrole-3-sulfonamide] |
| 0.5 to 5 µM | Cc1ccnc(C)c1NS(=O)(=O)c1c[nH]c(-c2ccccc2)c1 [Cpd 129, N-(2,4-dimethyl-3-pyridyl)-5-phenyl-1H-pyrrole-3-sulfonamide] |
